Measurements reported in patent publication US20200239938A1 (priority 2017, published 2020).

Assays:
Format in all cases: cell-based
[1] = test system: Salmonella enterica subsp. enterica DSM-5569; experiment: drop plate enumeration of viable cells on tryptic soy agar; design: key to drop plate growth: +++: bacterial lawn; ++: few colonies; +: single colonies; −: no growth observable; conditions: for viable cells at the start of cultivation: 0 h
Text: (§1) The pathogens of interest Salmonella enterica subsp. enterica and Campylobacter jejuni were cultivated in microtiter plate scale in order to enable the simultaneous application of four different starting culture concentrations and treatments (Table 3). For analysis, samples for DNA extraction were taken after different times of cultivation and applied for qPCR enumeration of Salmonella enterica subsp. enterica and Campylobacter jejuni specific genes. As the qPCR assay is designed to record both viable and non-viable cells, an additional viability check was performed for AB treated cultures and the untreated controls.
(§2) In order to evaluate the effect of bactericidic effect Kanamycin, drop plate tests were performed to determine the number of viable cells. Three dilutions of a ten-fold series of the high (dilutions 10^−3, 10^−4 and 10^−5) and low (dilutions 10′, 10^−2 and 10^−3) inoculated culture after 0 and 6 h were plated in triplicates on CBA (Campylobacter) or tryptic soy agar (TSA) (Salmonella) by dropping 10 μl on the agar. The plates were evaluated regarding growth at the distinct log dilutions after 24 h incubation (41° C. microaerophilic for Campylobacter, 37° C. aerobic for Salmonella).

[2] = test system: Campylobacter jejuni DSM-24306; experiment: microtiter plate cultivation assay with qPCR enumeration of the Cj0414 target gene (growth curves, growth rate); conditions: Butyrate 25 mM; for growth rate: cultivation period of 0 to 7 h, very high to low inoculum, GutCare 10% (v/v)
Text: as §1
For Campylobacter jejuni experiments the DSMZ strain DSM-24306 was applied. The inoculum culture was produced by a first overnight cultivation on Columbia Blood Agar (CBA) followed by an overnight cultivation in Mueller-Hinton broth (MH). All cultivations took place under microaerophilic conditions (5% O2, 10% CO2, and […]) at 41° C.
The actual assay was carried out in microtiter plate format containing a total volume of 200 μl. Following media for the different treatment conditions were prepared according to Table 4. For the probiotic treatments (Ecobiol and GutCare), sterile filtrated supernatant of an overnight culture (=cell-free) or non-sterile filtrated, cell-containing supernatant of the same overnight culture was applied.
For C. jejuni all treatments were prepared in MH medium and for S. enterica in LBG respectively. Strains were cultivated under the conditions described in 2.1. Inoculated medium without any treatment served as an untreated control.
For each intervention and for the untreated control, following inoculum concentrations given in starting quantity of the Salmonella enterica subsp. enterica and Campylobacter jejuni specific target gene per ml culture were applied for the start of the assay:
From each concentration and treatment, enough wells were prepared to extract DNA from three well replicates per time point and treatment. For Campylobacter, DNA was extracted after 0, 7, 24 and 48 h. For Salmonella, 0, 2, 4, 6, 24 and 30 h of cultivation were chosen. […]
(§3) For enumeration of Salmonella or Campylobacter, primers and probes binding in conserved genetic regions, specific for each species were applied in qPCR assays with a total volume of 30 μl and a DNA eluate volume of 10 μl. […] Absolute quantification of targets was performed under consolidation of standard curves that were carried with each run. Using the standard curves, the starting quantity (SQ) of the specific target was calculated for each sample. […]
To outline the effect of each treatment, the difference of growth rates between untreated and treated cultures was calculated for each starting inoculum concentration as following: […]

[3] = test system: Campylobacter jejuni DSM-24306; experiment: drop plate enumeration of viable cells on Columbia Blood Agar; design: key to drop plate growth: +++: bacterial lawn; ++: few colonies; +: single colonies; −: no growth observable; conditions: for viable cells at the start of cultivation: 0 h
Text: as §1, §2

[4] = test system: Salmonella enterica subsp. enterica DSM-5569; experiment: drop plate enumeration of viable cells on tryptic soy agar; design: key: +++: bacterial lawn; ++: few colonies; +: single colonies; −: no growth observable
[5] = test system: Campylobacter jejuni DSM-24306; experiment: drop plate enumeration of viable cells on Columbia Blood Agar; design: key: +++: bacterial lawn; ++: few colonies; +: single colonies; −: no growth observable
[6] = test system: Salmonella enterica subsp. enterica DSM-5569; experiment: microtiter plate cultivation assay with qPCR enumeration of the hilA target gene (growth curves, growth rate)
Text: as §1, with “controls. […]” for “controls.”
For each intervention and for the untreated control, following inoculum concentrations given in starting quantity of the Salmonella enterica subsp. enterica and Campylobacter jejuni specific target gene per ml culture were applied for the start of the assay: […]
as §3

[7] = High concentrated, After 0 h, dilution 10^−5
[8] = High concentrated, After 6 h, dilution 10^−5
[9] = Low concentrated, After 0 h, dilution 10^−3
[10] = Low concentrated, After 6 h, dilution 10^−3
[11] = High concentrated, After 0 h, dilution 10^−6
[12] = High concentrated, After 0 h, dilution 10^−7
[13] = High concentrated, After 6 h, dilution 10^−6
[14] = High concentrated, After 6 h, dilution 10^−7
[15] = Low concentrated, After 0 h, dilution 10^−4
[16] = Low concentrated, After 0 h, dilution 10^−5
[17] = Low concentrated, After 6 h, dilution 10^−4
[18] = Low concentrated, After 6 h, dilution 10^−5

In the case of `NC[C@H]1O[C@H](O[C@H]2[C@H](O)[C@@H](O[C@H]3O[C@H](CO)[C@@H](O)[C@H](N)[C@H]3O)[C@H](N)C[C@@H]2N)[C@H](O)[C@@H](O)[C@@H]1O` [Kanamycin], the drop plate growth [1, 7] is reported as “+++”, the drop plate growth [1, 8] is reported as “−” and the drop plate growth [1, 9] is reported as “+++”. The drop plate growth [1, 10] was “−”, the “viable cells at the start of cultivation” value ([1]; high concentrated inoculum) was 6-7 log and the “viable cells at the start of cultivation” value ([1]; low concentrated inoculum) was 5 log. The growth rate ([2]; Kanamycin 50 μl/ml) was ~0.13, the drop plate growth [3, 7] was “++” and the drop plate growth [3, 8] was “−”. For the same compound, the drop plate growth [3, 9] was “++”, the drop plate growth [3, 10] was “−” and the “viable cells at the start of cultivation” value ([3]; high concentrated inoculum) was 6-7 log. The “viable cells at the start of cultivation” value ([3]; low concentrated inoculum) was 5 log, the drop plate growth [4, 11] was “++” and the drop plate growth [4, 12] was “+”. For the same compound, the drop plate growth [4, 13] was “−”, the drop plate growth [4, 14] was “−” and the drop plate growth [4, 15] was “++”. The drop plate growth [4, 16] was “+”, the drop plate growth [4, 17] was “−” and the drop plate growth [4, 18] was “−”. The drop plate growth [5, 11] was “+”, the drop plate growth [5, 12] was “−” and the drop plate growth [5, 13] was “−”. For the same compound, the drop plate growth [5, 14] was “−”, the drop plate growth [5, 15] was “++” and the drop plate growth [5, 16] was “+”. For the same compound, the drop plate growth [5, 17] was “−” and the drop plate growth [5, 18] was “−”.

`CCCC(=O)[O-].[Na+]` [sodium butyrate, Sodium butyrate] was tested, and the “difference of the growth rates (delta) from untreated control” value ([6]; 0 to 7 h, in relation to inoculum concentration (very high to low)) was “effect is rather low for all concentrations”, the “growth curve (target starting quantity (SQ) per ml culture, qPCR)” value ([6]; all inoculum concentrations, LBG, 37° C. aerobic, Butyrate 25 mM, Ecobiol 10% (v/v), 0-30 h) was “strong exponential growth during the first 7 h” and the “growth curve (target starting quantity (SQ) per ml culture, qPCR)” value ([2]; all inoculum concentrations, MH medium, 41° C. microaerophilic, GutCare (cell-free) 10% (v/v), Kanamycin 50 μl/ml, 0-48 h) was “inhibitory effect”. For the same compound, the “plateau SQ” value ([2]; compared with untreated control) was “significantly lower plateau SQ” and the growth rate ([2]; Kanamycin 50 μl/ml) was “around 0.24”.
